Assay results taken from PubChem BioAssay (NCI).
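GI50 marks 50% less growth. Definition used: TGI = concentration required for complete inhibition of growth.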

Columns and labels:
Test in all cases: NCI tumour cell line growth inhibition, 384-well format
IGROV1 ovarian = test system: IGROV1 ovarian
HOP-62 NSCLC = test system: HOP-62 NSCLC
MDA-MB-435 melanoma = test system: MDA-MB-435 melanoma
K-562 leukemia = test system: K-562 leukemia
HOP-92 NSCLC = test system: HOP-92 NSCLC
NCI-H522 lung = test system: NCI-H522 lung
SK-MEL-28 melanoma = test system: SK-MEL-28 melanoma
TK-10 renal = test system: TK-10 renal
786-0 renal = test system: 786-0 renal
MALME-3M melanoma = test system: MALME-3M melanoma
RXF 393 renal = test system: RXF 393 renal
SNB-75 CNS = test system: SNB-75 CNS
SK-MEL-5 melanoma = test system: SK-MEL-5 melanoma
SW-620 colon = test system: SW-620 colon
T-47D breast = test system: T-47D breast
UACC-257 melanoma = test system: UACC-257 melanoma
SK-OV-3 ovarian = test system: SK-OV-3 ovarian
HT29 colon = test system: HT29 colon
LOX IMVI melanoma = test system: LOX IMVI melanoma
A498 renal = test system: A498 renal
NCI-H322M lung = test system: NCI-H322M lung
EKVX NSCLC = test system: EKVX NSCLC
UACC-62 melanoma = test system: UACC-62 melanoma
COLO 205 colon = test system: COLO 205 colon
U251 glioblastoma = test system: U251 glioblastoma
HCT-15 colon = test system: HCT-15 colon
HCC-2998 colon = test system: HCC-2998 colon
UO-31 renal = test system: UO-31 renal
CCRF-CEM leukemia = test system: CCRF-CEM leukemia
KM12 colon = test system: KM12 colon
M14 melanoma = test system: M14 melanoma
PC-3 prostate = test system: PC-3 prostate
SF-268 CNS = test system: SF-268 CNS
HL-60(TB) leukemia = test system: HL-60(TB) leukemia
DU-145 prostate = test system: DU-145 prostate
ACHN renal = test system: ACHN renal
OVCAR-4 ovarian = test system: OVCAR-4 ovarian
OVCAR-8 ovarian = test system: OVCAR-8 ovarian
SF-295 CNS = test system: SF-295 CNS
CAKI-1 renal = test system: CAKI-1 renal
RPMI-8226 leukemia = test system: RPMI-8226 leukemia
HS 578T breast = test system: HS 578T breast
MDA-MB-231 breast = test system: MDA-MB-231 breast
SR leukemia = test system: SR leukemia
OVCAR-3 ovarian = test system: OVCAR-3 ovarian
HCT-116 colon = test system: HCT-116 colon
NCI-H460 NSCLC = test system: NCI-H460 NSCLC
NCI-H23 lung = test system: NCI-H23 lung
A549 NSCLC = test system: A549 NSCLC
NCI/ADR-RES ovarian = test system: NCI/ADR-RES ovarian
SF-539 CNS = test system: SF-539 CNS
BT-549 breast = test system: BT-549 breast
MCF7 breast = test system: MCF7 breast
NCI-H226 lung = test system: NCI-H226 lung

Question: Which results are given for `CCCCCCCCCCCCCCCC(=O)Nc1ccn([C@@H]2O[C@H](CO)[C@@H](O)[C@@H]2C#N)c(=O)n1`?
Answer: GI50 (IGROV1 ovarian): 12.7 µM; TGI (IGROV1 ovarian): 86 µM; GI50 (HOP-62 NSCLC): 54.2 nM; TGI (HOP-62 NSCLC): 18.5 µM; GI50 (MDA-MB-435 melanoma): 28.1 µM; TGI (MDA-MB-435 melanoma): > 100 µM; GI50 (K-562 leukemia): 2520 nM; TGI (K-562 leukemia): 17.7 µM; GI50 (HOP-92 NSCLC): 4.71 µM; TGI (HOP-92 NSCLC): 35.3 µM; GI50 (NCI-H522 lung): 6.11 µM; TGI (NCI-H522 lung): 23.4 µM; GI50 (SK-MEL-28 melanoma): 6.96 µM; TGI (SK-MEL-28 melanoma): 30.1 µM; GI50 (TK-10 renal): 34.8 µM; TGI (TK-10 renal): > 100 µM; GI50 ([…]-0 renal): 59.8 nM; TGI (786-0 renal): 29.8 µM; GI50 (MALME-3M melanoma): 10.5 µM; TGI (MALME-3M melanoma): 28 µM; GI50 (RXF 393 renal): 16.6 µM; TGI (RXF 393 renal): > 100 µM; GI50 (SNB-75 CNS): 4.66 µM; TGI (SNB-75 CNS): 52.5 µM; GI50 (SK-MEL-5 melanoma): 7.71 µM; TGI (SK-MEL-5 melanoma): 21 µM; GI50 (SW-620 colon): 4.81 µM; TGI (SW-620 colon): > 100 µM; GI50 (T-47D breast): 35.1 µM; TGI (T-47D breast): > 100 µM; GI50 (UACC-257 melanoma): 20.1 µM; TGI (UACC-257 melanoma): 74.6 µM; GI50 (SK-OV-3 ovarian): 1150 nM; TGI (SK-OV-3 ovarian): 39.1 µM; GI50 (HT29 colon): 12.5 µM; TGI (HT29 colon): > 100 µM; GI50 (LOX IMVI melanoma): 3.42 µM; TGI (LOX IMVI melanoma): 17.7 µM; GI50 (A498 renal): 740 nM; TGI (A498 renal): 15.8 µM; GI50 (NCI-H322M lung): 14.6 µM; TGI (NCI-H322M lung): 31 µM; GI50 (EKVX NSCLC): 28.4 µM; TGI (EKVX NSCLC): > 100 µM; GI50 (UACC-62 melanoma): 655 nM; TGI (UACC-62 melanoma): 23.5 µM; GI50 (COLO 205 colon): 325 nM; TGI (COLO 205 colon): > 100 µM; GI50 (U251 glioblastoma): 314 nM; TGI (U251 glioblastoma): 23.5 µM; GI50 (HCT-15 colon): 946 nM; TGI (HCT-15 colon): 66.9 µM; GI50 (HCC-2998 colon): 464 nM; TGI (HCC-2998 colon): 10.6 µM; GI50 (UO-31 renal): 11.7 µM; TGI (UO-31 renal): 45.7 µM; TGI (CCRF-CEM leukemia): 120 nM; GI50 (KM12 colon): 6.5 µM; TGI (KM12 colon): 35.2 µM; GI50 (M14 melanoma): 3 µM; TGI (M14 melanoma): 22.4 µM; GI50 (PC-3 prostate): 13.3 µM; TGI (PC-3 prostate): 92.5 µM; GI50 (SF-268 CNS): 430 nM; TGI (SF-268 CNS): 19.9 µM; GI50 (HL-60(TB) leukemia): 368 nM; TGI (HL-60(TB) leukemia): 1400 nM; GI50 (DU-145 prostate): 751 nM; TGI (DU-145 prostate): 21.7 µM; GI50 (ACHN renal): 988 nM; TGI (ACHN renal): 39.1 µM; GI50 (OVCAR-4 ovarian): 28.1 µM; TGI (OVCAR-4 ovarian): > 100 µM; GI50 (OVCAR-8 ovarian): 292 nM; TGI (OVCAR-8 ovarian): 18.4 µM; GI50 (SF-295 CNS): 716 nM; TGI (SF-295 CNS): > 100 µM; GI50 (CAKI-1 renal): 2440 nM; TGI (CAKI-1 renal): 43.6 µM; GI50 (RPMI-8226 leukemia): 4.4 µM; TGI (RPMI-8226 leukemia): 20.6 µM; GI50 (HS 578T breast): 1580 nM; TGI (HS 578T breast): 20.4 µM; GI50 (MDA-MB-231 breast): 11.1 µM; TGI (MDA-MB-231 breast): > 100 µM; GI50 (SR leukemia): 139 nM; TGI (SR leukemia): 339 nM; GI50 (OVCAR-3 ovarian): 10.3 µM; TGI (OVCAR-3 ovarian): 37.9 µM; GI50 (HCT-116 colon): 454 nM; TGI (HCT-116 colon): 18.8 µM; GI50 (NCI-H460 NSCLC): 143 nM; TGI (NCI-H460 NSCLC): 10.1 µM; GI50 (NCI-H23 lung): 244 nM; TGI (NCI-H23 lung): 15.5 µM; GI50 (A549 NSCLC): 1320 nM; TGI (A549 NSCLC): 20 µM; GI50 (NCI/ADR-RES ovarian): 11.1 µM; TGI (NCI/ADR-RES ovarian): > 100 µM; GI50 (SF-539 CNS): 4.82 µM; TGI (SF-539 CNS): 38.3 µM; GI50 (BT-549 breast): 5.56 µM; TGI (BT-549 breast): 24.2 µM; GI50 (MCF7 breast): 1330 nM; TGI (MCF7 breast): 24.3 µM; GI50 (NCI-H226 lung): 13.3 µM; TGI (NCI-H226 lung): 54.9 µM
